# From paper PMC3280214, “Structure Based Discovery of Small Molecules to Regulate the Activity of Human Insulin Degrading Enzyme” (PLoS ONE, 2012)
# Columns and labels:
# HeLa cells = assay: MTT assay for cell viability; format: cell-based, human; details: 24 h; for cytotoxicity at high concentrations: 1 to 100 µM
# Description: We characterized the activity of novel compounds in a cellular assay to establish whether there were any cytotoxic effects. We used an established MTT (3-(4,5-dimethylthiazolyl-2)-2, 5-diphenyltetrazolium bromide or thiazolyl blue) method using HELA cells to determine whether the small molecule affects cell viability. In this method, a purple formazan dye forms as a result of the cleavage of the yellow tetrazolium MTT within metabolically active cells. The resulting precipitate of the intracellular formazan can be dissolved in a detergent solution and quantified spectrophotometrically at 595 nm. We measured the cytotoxicity by incubating HELA cells in the presence of novel compounds at concentrations ranging from 1 to 100 µM for 24 h. Cell viability was measured using the MTT method after […] culture. The extent of cell death was expressed relative to a control containing DMSO. […] Therefore, as a next step we tested the effects of lead compounds on insulin catabolism using HeLa cells.
# The cytotoxicity assay was performed using human cervical cancer HeLa cells. Cells were cultured at 37°C under a humidified atmosphere of 5% CO2 in medium supplemented with 10% fetal bovine serum and dispersed in replicate 96-well plates with 2.5×10^4 cells/well. Compounds were then added. After 24 hours exposure to the chemical compounds, the cell viability was determined by 3-[4,5-dimethylthiazol-2-yl]-2,5-diphenpyltetrazolium bromide (MTT) assay. The optical density (OD) of the wells was determined using ELISA plate reader at a test wavelength of 600 nm and a reference wavelength of 630 nm. Each measurement was carried out in triplicate.
# IDE = molecular target: T1, IDE (Homo sapiens, UniProt P14735); assay: FAβB (amyloid-β) degradation assay; format: biochemical; details: 20 µM compound
# T1 construct: made in house; host or cells: E. coli BL21
# T1 sequence (P14735 1-1019): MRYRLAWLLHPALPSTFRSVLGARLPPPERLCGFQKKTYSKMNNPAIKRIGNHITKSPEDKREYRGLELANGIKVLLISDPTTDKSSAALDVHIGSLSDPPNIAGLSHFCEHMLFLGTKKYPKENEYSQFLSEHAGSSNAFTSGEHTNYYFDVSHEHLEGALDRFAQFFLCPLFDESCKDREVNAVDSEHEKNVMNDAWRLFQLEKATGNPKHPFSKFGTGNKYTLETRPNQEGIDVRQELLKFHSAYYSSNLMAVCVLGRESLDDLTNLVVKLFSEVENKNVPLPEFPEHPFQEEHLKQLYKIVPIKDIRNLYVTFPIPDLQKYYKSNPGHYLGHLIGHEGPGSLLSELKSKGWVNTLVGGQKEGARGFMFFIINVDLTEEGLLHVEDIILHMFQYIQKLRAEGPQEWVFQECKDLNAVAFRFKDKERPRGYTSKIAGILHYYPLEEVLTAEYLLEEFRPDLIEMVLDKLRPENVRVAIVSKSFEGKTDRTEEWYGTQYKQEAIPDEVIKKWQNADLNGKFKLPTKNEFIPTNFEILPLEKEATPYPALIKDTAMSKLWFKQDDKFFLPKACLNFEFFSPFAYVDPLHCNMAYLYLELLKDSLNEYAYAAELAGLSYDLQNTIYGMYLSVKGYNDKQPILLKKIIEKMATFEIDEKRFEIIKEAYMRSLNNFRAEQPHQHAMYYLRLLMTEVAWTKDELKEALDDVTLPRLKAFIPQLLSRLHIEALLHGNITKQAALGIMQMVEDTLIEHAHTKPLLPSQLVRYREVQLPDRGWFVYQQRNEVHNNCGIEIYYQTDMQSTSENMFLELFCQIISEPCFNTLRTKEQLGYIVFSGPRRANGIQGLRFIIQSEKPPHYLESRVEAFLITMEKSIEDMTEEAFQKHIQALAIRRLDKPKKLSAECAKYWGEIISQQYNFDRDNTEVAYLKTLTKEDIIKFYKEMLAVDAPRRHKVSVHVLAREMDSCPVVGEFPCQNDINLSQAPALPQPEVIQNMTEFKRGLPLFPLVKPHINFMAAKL
# Description: The 10 compounds given in Table 1 were subjected to further characterization and their effect was measured on the proteolytic activity of IDE using different substrates. Initially, activity assays were carried out at fixed 20 µM concentrations for all molecules to identify the effect of those compounds on IDE activity. IDE activity was quantified by monitoring the change in fluorescence for the proteolysis of fluorogenic-substrate V, FITC- insulin-bound antibody, and FAβB by recombinant human IDE purified from E.coli BL21 [6], [18], [19]. […] Also, D6 increased the amyloid-β degradation by 20% (Fig. S1C). Further, D10 enhanced IDE-mediated FITC-insulin-mAb and substrate V degradation by 290% and 65%, respectively (Fig. S1A, B). Next, an EC50 value of each molecule that enhanced IDE activity was determined with a dose response assay, where specific activity of IDE was measured with different concentrations of the lead compounds and then the plot was fit to Sigmoidal Hill-4 parameter equation. […] EC50 value for D3 on insulin degradation was approximately measured as 20 µM (Fig. S2C), whereas EC50 value for D6 on amyloid-β degradation was 2 µM (Fig. S2D). […] Among all these four compounds, D10 seems to be the potent activator of IDE, when proteolysis of insulin is considered.
# This assay was performed as follows: 10 µl of 50 nM of FAβB was dissolved in a buffer which consisted of 50 mM HEPES, 100 mM NaCl, % 0,05 (v/v) bovine serum albumin, at a pH of 7.4. The reaction was initiated in a total volume of 100 µl with 20 µM drugs by adding 20 µl of 0.02 mg/ml of IDE for 2.5 h at 37°C. The reaction was stopped by adding 2 µl of 100 mM of protease inhibitor (1, 10-phenanthroline). Uncleaved FAβB was precipitated with Neutravidin- coated agarose beads by gentle rocking for 30 min. and centrifugation for 10 min at 14000 g. The supernatant was transferred to the black 96 well plates and increase in fluorescence (488 excitation, 525 emission) was measured with a multi-label plate reader.
# The effect of the lead compounds on the initial rate of proteolysis of IDE was determined by measurement in fluorescence with time both in the presence and absence of the lead compounds. The kinetic data for IDE-mediated insulin, substrate V and amyloid-β degradation were plotted and fitted using SigmaPlot software (Sigmoidal, Hill, 4 parameter). For the initial rate calculations, kinetic data were fitted using SigmaPlot software (Hyperbola; Single Rectangular I, 3 Parameter).
compound,measurement,setting,value
COc1ccc(C2C(C(=O)Nc3ccccc3)=C(C)N=c3sc(=Cc4cn(C)nc4C)c(=O)n32)cc1 (stereo not shown) [Compound D3],cytotoxicity at high concentrations,HeLa cells,did not demonstrate any toxicity
same,effect on proteolysis activity of IDE for amyloid-β,IDE,did not have any effect
Nc1c(C(=O)Nc2ccccc2F)c2ccccn2c1C(=O)c1ccc2c(c1)CCCC2 [Compound D4],cell viability,HeLa cells; 7.5 µM,approximately 85%
same,cell viability,HeLa cells; 100 µM,60%
same,effect on proteolysis activity of IDE for amyloid-β,IDE,did not have any effect
Cc1nn(-c2ccccc2)c2nc(-c3cccc([N+](=O)[O-])c3)n3c4ccccc4nc3c2c1=O [Compound D10],cytotoxicity at high concentrations,HeLa cells,did not demonstrate any toxicity
same,effect on proteolysis activity of IDE for amyloid-β,IDE,did not have any effect
